The values below come from patent US9840513B2 (AbbVie S.à.r.l., priority 2015, dated 2017).

For this test, the target named is T1, F508delCFTR cell surface expression in CFBE41o-F508delCFTR-HRP cells (Homo sapiens, UniProt P13569, DEL508-508).
T1 construct: fused on or other part: Horseradish peroxidase (HRP) reporter inserted in the fourth exofacial (extracellular) loop of CFTR; expression is doxycycline-inducible
Put plainly: Cell Surface Expression-Horse Radish Peroxidase (CSE-HRP) Assay. Type of test: cell-based. The note with it: for EC50: CFBE41o-F508delCFTR-HRP cells, 18-24 hours at 33° C., 8-point curve, highest concentration 20 μM; for Maximum % activity (%): maximum at any tested concentration, normalized to on-plate positive control (3 μM). The source says:
Cell Surface Expression-Horse Radish Peroxidase (CSE-HRP) Assay:
A cellular assay for measuring the F508delCFTR cell surface expression after correction with test compounds was developed in human lung derived epithelial cell line (CFBE41o-) (Veit G et al, (2012) Mol Biol Cell. 23(21): 4188-4202). This was achieved by expressing the F508delCFTR mutation along with a horseradish peroxidase (HRP) in the fourth exofacial loop and then measuring the HRP activity using luminescence readout from these cells, CFBE41o-F508delCFTR-HRP, that were incubated overnight with the test corrector compounds. Briefly, for this primary assay, the CFBE41o-F508delCFTR-HRP cells were plated in 384-well plates (Greiner Bio-one; Cat 781080) at 4,000 cells/well along with 0.5 μg/mL doxycycline to induce the F508delCFTR-HRP expression and further incubated at 37° C., 5% CO2 for 72 hours. The test compounds were then added at the required concentrations and further incubated for 18-24 hours at 33° C. The highest concentration tested was 20 μM with an 8-point concentration response curve using a 3-fold dilution. Three replicate plates were run to determine one EC50. All plates contained negative controls (dimethyl sulfoxide, DMSO) and positive controls (3 μM of 3-[(2R,4R)-4-({[1-(2,2-difluoro-1,3-benzodioxol-5-yl)cyclopropyl]carbonyl}amino)-7-methoxy-3,4-dihydro-2H-chromen-2-yl]benzoic acid) as well as on-plate concentration response of the positive control. Post incubation, the plates were washed 5× times with Dulbecco's phosphate buffered saline (DPBS), followed by the addition of the HRP substrate, luminol (50 μL), and measuring the HRP activity using luminescence readout on EnVision® Multilabel Plate Reader (Perkin Elmer; product number 2104-0010). The raw counts from the experiment are analyzed using Accelrys® Assay Explorer v3.3.
Z′ greater than 0.5 was used as passing quality control criteria for the plates.
The Z′ is defined as: 1−[3*SDPositive Control+3*SDNegative Control/Absolute(MeanPositive Control−MeanNegative Control)] wherein “SD” is standard deviation.
The % activity measured at each of the 8 test concentrations of the test compound was normalized to the on-plate positive control using the following formula: % activity=[(test compound response DMSO response)/(positive control response DMSO response)]*100
The maximum % activity achieved for the test compound at any tested concentration is presented in Table 1 along with the EC50 calculated using the following general sigmoidal curve with variable Hill slope equation (described as Model 42 in the Accelrys® Assay Explorer v3.3 software): y=(a−d)/(1+(x/c)^b)+d
General sigmoidal curve with concentration, response, top, bottom, EC50 and Hill slope.
This model describes a sigmoidal curve with an adjustable baseline, a. The equation can be used to fit curves where response is either increasing or decreasing with respect to the independent variable, “x”.
“x” is a concentration of drug under test.
“a” is the maximum response, and “d” is the minimum response
“c” is the inflection point (EC50) for the curve. That is, “y” is halfway between the lower and upper asymptotes when x=c.
“b” is the slope-factor or Hill coefficient. The sign of b is positive when the response increases with increasing dose and is negative when the response decreases with increasing dose (inhibition).

T1 sequence (P13569 with tags, fused parts or gaps DEL508-508 limits assumed): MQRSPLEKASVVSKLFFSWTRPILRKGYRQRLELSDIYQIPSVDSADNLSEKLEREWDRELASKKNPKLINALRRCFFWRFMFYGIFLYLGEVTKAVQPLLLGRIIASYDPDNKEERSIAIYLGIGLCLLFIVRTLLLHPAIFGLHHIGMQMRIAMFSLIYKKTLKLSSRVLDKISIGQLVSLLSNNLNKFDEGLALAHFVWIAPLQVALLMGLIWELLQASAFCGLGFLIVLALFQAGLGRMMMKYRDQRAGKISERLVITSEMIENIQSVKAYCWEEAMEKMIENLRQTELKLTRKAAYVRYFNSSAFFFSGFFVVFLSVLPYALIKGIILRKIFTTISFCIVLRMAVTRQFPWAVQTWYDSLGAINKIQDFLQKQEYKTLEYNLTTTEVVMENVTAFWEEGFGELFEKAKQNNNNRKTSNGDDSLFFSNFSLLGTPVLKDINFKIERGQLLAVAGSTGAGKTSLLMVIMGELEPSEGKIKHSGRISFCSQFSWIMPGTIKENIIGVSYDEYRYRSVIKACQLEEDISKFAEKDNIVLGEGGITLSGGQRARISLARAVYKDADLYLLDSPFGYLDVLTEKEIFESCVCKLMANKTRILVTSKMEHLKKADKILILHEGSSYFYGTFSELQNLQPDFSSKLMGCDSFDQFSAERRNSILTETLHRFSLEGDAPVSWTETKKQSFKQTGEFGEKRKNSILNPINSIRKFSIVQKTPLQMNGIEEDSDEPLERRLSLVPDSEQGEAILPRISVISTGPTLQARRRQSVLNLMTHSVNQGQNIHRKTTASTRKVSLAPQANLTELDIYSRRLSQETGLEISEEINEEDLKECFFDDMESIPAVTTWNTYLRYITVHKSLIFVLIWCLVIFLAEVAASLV
T1 sequence (P13569 919-1480 limits assumed, stated change not applied): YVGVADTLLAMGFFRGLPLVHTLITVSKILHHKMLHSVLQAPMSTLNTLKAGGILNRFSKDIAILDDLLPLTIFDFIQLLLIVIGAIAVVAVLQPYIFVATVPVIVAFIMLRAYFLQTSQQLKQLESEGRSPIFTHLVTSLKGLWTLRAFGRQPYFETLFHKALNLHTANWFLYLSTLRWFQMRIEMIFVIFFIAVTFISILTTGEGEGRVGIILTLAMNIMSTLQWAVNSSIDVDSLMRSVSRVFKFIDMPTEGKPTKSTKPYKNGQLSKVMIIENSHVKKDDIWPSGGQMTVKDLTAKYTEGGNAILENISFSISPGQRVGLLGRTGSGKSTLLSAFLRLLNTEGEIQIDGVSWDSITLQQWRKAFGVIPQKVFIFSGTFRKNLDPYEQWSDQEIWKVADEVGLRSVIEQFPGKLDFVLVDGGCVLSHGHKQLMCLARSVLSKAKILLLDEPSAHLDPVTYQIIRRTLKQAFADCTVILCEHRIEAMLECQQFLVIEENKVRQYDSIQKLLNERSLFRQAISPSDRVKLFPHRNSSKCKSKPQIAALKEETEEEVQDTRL

On to `C[C@]1(C(=O)Nc2cccc(-c3ccc(C(=O)O)cc3F)n2)COc2cc3c(cc21)OC(F)(F)O3` [Example 123, 4-(6-{[(7R)-2,2-difluoro-7-methyl-6,7-dihydro-2H-furo[2,3-f][1,3]benzodioxole-7-carbonyl]amino}pyridin-2-yl)-3-fluorobenzoic acid], for which it took 1530 nM to reach a half-maximal effect (EC50) and the “Maximum % activity (%)” value was 189%.
For `Cc1ccc(NC(=O)[C@@]2(C)COc3cc4c(cc32)OC(F)(F)O4)nc1-c1cccc(C(=O)OC(C)(C)C)c1` [Example 5, tert-butyl 3-(6-{[(7R)-2,2-difluoro-7-methyl-6,7-dihydro-2H-furo[2,3-f][1,3]benzodioxole-7-carbonyl]amino}-3-methylpyridin-2-yl)benzoate], the 50% effective concentration (EC50) is 3210 nM and the “Maximum % activity (%)” value is recorded as 137%.
The like results for `C[C@]1(C(=O)Nc2cccc(N3CCC(c4ccc(F)cc4)C3)n2)COc2cc3c(cc21)OC(F)(F)O3` (stereo partly drawn) [Example 114, (7R)-2,2-difluoro-N-{6-[3-(4-fluorophenyl)pyrrolidin-1-yl]pyridin-2-yl}-7-methyl-6,7-dihydro-2H-furo[2,3-f][1,3]benzodioxole-7-carboxamide] were, in that order, 750 nM and 98%.
With `COc1ccc2c(c1)O[C@@H](c1cnc(Cl)cn1)C[C@H]2NC(=O)[C@@]1(C)COc2cc3c(cc21)OC(F)(F)O3` [Example 193, (7R)—N-[(2R,4R)-2-(5-chloropyrazin-2-yl)-7-methoxy-3,4-dihydro-2H-1-benzopyran-4-yl]-2,2-difluoro-7-methyl-6,7-dihydro-2H-furo[2,3-f][1,3]benzodioxole-7-carboxamide], the midpoint of the response, the EC50, lay at 180 nM and the “Maximum % activity (%)” value was found to be 118%.
With `COc1ccc2c(c1)O[C@@H](c1ccc(C(=O)NC(C)(C)CO)cn1)C[C@H]2NC(=O)[C@@]1(C)COc2cc3c(cc21)OC(F)(F)O3` [Example 215, 6-[(2R,4R)-4-{[(7R)-2,2-difluoro-7-methyl-6,7-dihydro-2H-furo[2,3-f][1,3]benzodioxole-7-carbonyl]amino}-7-methoxy-3,4-dihydro-2H-1-benzopyran-2-yl]-N-(1-hydroxy-2-methylpropan-2-yl)pyridine-3-carboxamide], the EC50 worked out at 30 nM and the “Maximum % activity (%)” value is listed as 113%.
With `C[C@]1(C(=O)N[C@H]2C[C@@H](C3CCN(CC(=O)O)CC3)Oc3cc(OC(F)(F)F)ccc32)COc2cc3c(cc21)OC(F)(F)O3` [Example 184, {4-[(2S,4S)-4-{[(7R)-2,2-difluoro-7-methyl-6,7-dihydro-2H-furo[2,3-f][1,3]benzodioxole-7-carbonyl]amino}-7-(trifluoromethoxy)-3,4-dihydro-2H-1-benzopyran-2-yl]piperidin-1-yl}acetic acid], the EC50 is over 20000 nM and the “Maximum % activity (%)” value is listed as 12%.
Regarding `CC(CO)NC(=O)[C@H]1CC[C@H]([C@H]2C[C@@H](NC(=O)[C@@]3(C)COc4cc5c(cc43)OC(F)(F)O5)c3ccc(OC(F)(F)F)cc3O2)CC1` (stereo partly drawn) [Example 259, (7R)-2,2-difluoro-N-[(2R,4R)-2-{trans-4-[(1-hydroxypropan-2-yl)carbamoyl]cyclohexyl}-7-(trifluoromethoxy)-3,4-dihydro-2H-1-benzopyran-4-yl]-7-methyl-6,7-dihydro-2H-furo[2,3-f][1,3]benzodioxole-7-carboxamide], the EC50 was 80 nM and the “Maximum % activity (%)” value came to 163%.
The matching figures for `C[C@]1(C(=O)N[C@@H]2C[C@H]([C@H]3CC[C@H](C(=O)N(CCO)Cc4ccccc4)CC3)Oc3cc(OC(F)(F)F)ccc32)COc2cc3c(cc21)OC(F)(F)O3` [Example 264, (7R)—N-[(2R,4R)-2-{trans-4-[benzyl(2-hydroxyethyl)carbamoyl]cyclohexyl}-7-(trifluoromethoxy)-3,4-dihydro-2H-1-benzopyran-4-yl]-2,2-difluoro-7-methyl-6,7-dihydro-2H-furo[2,3-f][1,3]benzodioxole-7-carboxamide]: 60 nM and 186%.
Consider `COc1ccc2c(c1)O[C@@H](c1ccc(C(=O)N3CCCOCC3)cn1)C[C@H]2NC(=O)[C@@]1(C)COc2cc3c(cc21)OC(F)(F)O3` [Example 219, (7R)-2,2-difluoro-N-{(2R,4R)-7-methoxy-2-[5-(1,4-oxazepane-4-carbonyl)pyridin-2-yl]-3,4-dihydro-2H-1-benzopyran-4-yl}-7-methyl-6,7-dihydro-2H-furo[2,3-f][1,3]benzodioxole-7-carboxamide], for which the EC50 is 30 nM and the “Maximum % activity (%)” value was 105%.
As to `CCN(CCO)C(=O)[C@H]1CC[C@H]([C@H]2C[C@@H](NC(=O)[C@@]3(C)COc4cc5c(cc43)OC(F)(F)O5)c3ccc(OC(F)(F)F)cc3O2)CC1` [Example 253, (7R)—N-[(2R,4R)-2-{trans-4-[ethyl(2-hydroxyethyl)carbamoyl]cyclohexyl}-7-(trifluoromethoxy)-3,4-dihydro-2H-1-benzopyran-4-yl]-2,2-difluoro-7-methyl-6,7-dihydro-2H-furo[2,3-f][1,3]benzodioxole-7-carboxamide], the concentration giving a half-maximal response (EC50) stood at 60 nM and the “Maximum % activity (%)” value came to 150%.
Turning to `C[C@]1(C(=O)Nc2cccc(-c3cc(C(=O)O)cs3)n2)COc2cc3c(cc21)OC(F)(F)O3` [Example 86, 5-(6-{[(7R)-2,2-difluoro-7-methyl-6,7-dihydro-2H-furo[2,3-f][1,3]benzodioxole-7-carbonyl]amino}pyridin-2-yl)thiophene-3-carboxylic acid], the response was half-maximal at 2840 nM (EC50) and the “Maximum % activity (%)” value was determined as 112%.
In the case of `C[C@]1(C(=O)Nc2cccc(-c3cccc(C(=O)O)c3F)n2)COc2cc3c(cc21)OC(F)(F)O3` [Example 125, 3-(6-{[(7R)-2,2-difluoro-7-methyl-6,7-dihydro-2H-furo[2,3-f][1,3]benzodioxole-7-carbonyl]amino}pyridin-2-yl)-2-fluorobenzoic acid], the EC50 came out at 1390 nM and the “Maximum % activity (%)” value came out at 136%.
With `Cc1ccc(NC(=O)[C@@]2(C)COc3cc4c(cc32)OC(F)(F)O4)nc1-c1cccc(C(O)CO)c1` (stereo partly drawn) [Example 126, (7R)—N-{6-[3-(1,2-dihydroxyethyl)phenyl]-5-methylpyridin-2-yl}-2,2-difluoro-7-methyl-6,7-dihydro-2H-furo[2,3-f][1,3]benzodioxole-7-carboxamide], a half-maximal effect (EC50) was put at 620 nM and the “Maximum % activity (%)” value is reported as 140%.
On to `Cc1ccc(NC(=O)[C@@]2(C)COc3cc4c(cc32)OC(F)(F)O4)nc1Cl` [Example 77, (7R)—N-(6-chloro-5-methylpyridin-2-yl)-2,2-difluoro-7-methyl-6,7-dihydro-2H-furo[2,3-f][1,3]benzodioxole-7-carboxamide], for which the EC50 is 6630 nM and the “Maximum % activity (%)” value is given as 116%.
`C[C@@]1(C(=O)N[C@@H]2C[C@H](c3ccc(C(=O)O)cc3)Oc3ccccc32)CCc2cc3c(cc21)OC(F)(F)O3` (single isomer, unassigned) [Example 58]: the 50% effective concentration (EC50) amounted to 420 nM and the “Maximum % activity (%)” value is 104%.
`C[C@]1(C(=O)Nc2cc(C3CC3)nn(-c3cccc(C(=O)O)c3)c2=O)COc2cc3c(cc21)OC(F)(F)O3` [Example 29, 3-[3-cyclopropyl-5-{[(7R)-2,2-difluoro-7-methyl-6,7-dihydro-2H-furo[2,3-f][1,3]benzodioxole-7-carbonyl]amino}-6-oxopyridazin-1(6H)-yl]benzoic acid]: a half-maximal response (EC50) required 1070 nM and the “Maximum % activity (%)” value is recorded as 155%.

Usually EC50 stands for the concentration at which the effect is half-maximal.
